B1: [35S]methionine-labeled human PPAR-γ (receptor, UniProt P37231-1 1-505, looked up)
chain: MGETLGDSPIDPESDSFTDTLSANISQEMTMVDTEMPFWPTNFGISSVDLSVMEDHSHSFDIKPFTTVDFSSISTPHYEDIPFTRTDPVVADYKYDLKLQEYQSAIKVEPASPPYYSEKTQLYNKPHEEPSNSLMAIECRVCGDKASGFHYGVHACEGCKGFFRRTIRLKLIYDRCDLNCRIHKKSRNKCQYCRFQKCLAVGMSHNAIRFGRMPQAEKEKLLAEISSDIDQLNPESADLRALAKHLYDSYIKSFPLTKAKARAILTGKTTDKSPFVIYDMNSLMMGEDKIKFKHITPLQEQSKEVAIRIFQGCQFRSVEAVQEITEYAKSIPGFVNLDLNDQVTLLKYGVHEIIYTMLASLMNKDGVLISEGQGFMTREFLKSLRKPFGDFMEPKFEFAVKFNALELDDSDLAIFIAVIILSGDRPGLLNVKPIEDIQDNLLQALELQLKLNHPESSQLFAKLLQKMTDLRQIVTEHVQLLQVIKKTETDMSLHPLLQEIYKDLY
modifications: [35S]methionine-labeled

Tests used:
[1] = target: T1, PPAR-γ (Homo sapiens, UniProt P37231); assay: competitive radioligand binding with [3H]rosiglitazone on purified LBD
T1 sequence (P37231 231-505 limits assumed): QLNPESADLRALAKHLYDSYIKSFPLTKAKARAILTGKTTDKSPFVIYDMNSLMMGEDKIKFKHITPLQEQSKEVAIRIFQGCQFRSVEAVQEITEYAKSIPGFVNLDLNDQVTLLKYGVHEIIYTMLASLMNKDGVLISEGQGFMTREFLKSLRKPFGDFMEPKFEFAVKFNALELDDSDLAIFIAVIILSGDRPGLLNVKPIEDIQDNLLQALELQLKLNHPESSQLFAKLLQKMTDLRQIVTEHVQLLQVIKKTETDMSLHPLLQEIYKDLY

[2] = target: GST-DRIP-205 fusion protein (UniProt Q15648 1-1581); assay: pull-down
Sequence of GST-DRIP-205 fusion protein (Q15648 whole entry, the tested form may be a part): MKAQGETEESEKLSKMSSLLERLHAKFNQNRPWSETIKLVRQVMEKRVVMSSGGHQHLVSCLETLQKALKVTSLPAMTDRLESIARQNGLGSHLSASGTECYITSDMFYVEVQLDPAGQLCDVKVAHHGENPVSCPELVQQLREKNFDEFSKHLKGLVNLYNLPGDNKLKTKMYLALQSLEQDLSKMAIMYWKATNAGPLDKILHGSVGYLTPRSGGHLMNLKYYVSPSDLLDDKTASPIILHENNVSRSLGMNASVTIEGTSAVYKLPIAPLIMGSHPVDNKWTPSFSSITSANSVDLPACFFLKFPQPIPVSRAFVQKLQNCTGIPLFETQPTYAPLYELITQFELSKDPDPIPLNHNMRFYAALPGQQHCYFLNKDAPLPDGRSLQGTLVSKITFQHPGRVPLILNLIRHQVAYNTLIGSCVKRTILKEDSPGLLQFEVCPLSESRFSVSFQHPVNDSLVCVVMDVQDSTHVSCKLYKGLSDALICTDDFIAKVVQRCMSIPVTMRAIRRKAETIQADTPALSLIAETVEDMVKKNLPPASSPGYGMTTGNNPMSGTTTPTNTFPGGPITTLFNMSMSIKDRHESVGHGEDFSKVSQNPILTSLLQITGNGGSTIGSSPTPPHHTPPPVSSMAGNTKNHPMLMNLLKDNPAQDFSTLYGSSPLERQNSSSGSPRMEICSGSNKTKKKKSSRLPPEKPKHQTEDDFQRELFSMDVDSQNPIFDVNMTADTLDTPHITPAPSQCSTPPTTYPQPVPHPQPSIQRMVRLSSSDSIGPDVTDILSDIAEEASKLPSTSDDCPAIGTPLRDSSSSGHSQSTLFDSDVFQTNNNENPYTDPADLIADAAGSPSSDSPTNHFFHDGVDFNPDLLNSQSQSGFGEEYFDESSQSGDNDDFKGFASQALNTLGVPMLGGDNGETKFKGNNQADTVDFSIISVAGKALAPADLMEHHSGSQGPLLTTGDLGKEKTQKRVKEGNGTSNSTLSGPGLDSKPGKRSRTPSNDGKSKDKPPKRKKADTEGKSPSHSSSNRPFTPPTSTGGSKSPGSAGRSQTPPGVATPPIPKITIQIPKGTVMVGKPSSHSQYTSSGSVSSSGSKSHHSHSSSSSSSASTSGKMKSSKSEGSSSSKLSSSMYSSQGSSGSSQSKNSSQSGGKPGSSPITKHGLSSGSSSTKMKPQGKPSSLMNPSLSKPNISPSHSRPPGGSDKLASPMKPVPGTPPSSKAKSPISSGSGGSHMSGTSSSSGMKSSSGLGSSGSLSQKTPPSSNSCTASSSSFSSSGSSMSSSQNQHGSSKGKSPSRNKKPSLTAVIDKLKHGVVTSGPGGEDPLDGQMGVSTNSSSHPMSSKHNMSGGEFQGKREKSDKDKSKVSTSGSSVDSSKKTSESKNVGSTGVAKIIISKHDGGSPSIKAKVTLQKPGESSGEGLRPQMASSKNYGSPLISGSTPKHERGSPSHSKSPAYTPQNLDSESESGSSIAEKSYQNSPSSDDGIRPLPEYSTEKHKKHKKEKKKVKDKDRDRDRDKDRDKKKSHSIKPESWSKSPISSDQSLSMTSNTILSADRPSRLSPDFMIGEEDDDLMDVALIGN

Molecule	Ki [1] [mM]	amount bound with 5-ASA (5 mM) relative to that with rosiglitazone (10^-5 M) [2] [%]
Nc1ccc(O)c(C(=O)O)c1 [5-ASA]	28.7	
B1		~150

Reference: PMC2213148 (The Journal of Experimental Medicine, 2005)
